“Also recorded” adds a separate entry of the source.
What was measured:
[1] = molecular target: T1, 5-oxo-L-prolinase (Rattus norvegicus, UniProt P97608); assay: Action of 5-oxo-L-prolinase on substrates (formation of ADP and amino acid); assay type: biochemical; settings: for Reaction with the enzyme in the presence of ATP (formation of ADP and cysteine): incubation with 5-oxo-L-prolinase and ATP, FIG. 2: 5 mM substrate
T1 construct: 5-Oxo-L-prolinase was isolated from rat kidney and freed of 5-oxoproline by gel filtration; from tissue; host or cells: rat kidney
T1 sequence (P97608 1-1288): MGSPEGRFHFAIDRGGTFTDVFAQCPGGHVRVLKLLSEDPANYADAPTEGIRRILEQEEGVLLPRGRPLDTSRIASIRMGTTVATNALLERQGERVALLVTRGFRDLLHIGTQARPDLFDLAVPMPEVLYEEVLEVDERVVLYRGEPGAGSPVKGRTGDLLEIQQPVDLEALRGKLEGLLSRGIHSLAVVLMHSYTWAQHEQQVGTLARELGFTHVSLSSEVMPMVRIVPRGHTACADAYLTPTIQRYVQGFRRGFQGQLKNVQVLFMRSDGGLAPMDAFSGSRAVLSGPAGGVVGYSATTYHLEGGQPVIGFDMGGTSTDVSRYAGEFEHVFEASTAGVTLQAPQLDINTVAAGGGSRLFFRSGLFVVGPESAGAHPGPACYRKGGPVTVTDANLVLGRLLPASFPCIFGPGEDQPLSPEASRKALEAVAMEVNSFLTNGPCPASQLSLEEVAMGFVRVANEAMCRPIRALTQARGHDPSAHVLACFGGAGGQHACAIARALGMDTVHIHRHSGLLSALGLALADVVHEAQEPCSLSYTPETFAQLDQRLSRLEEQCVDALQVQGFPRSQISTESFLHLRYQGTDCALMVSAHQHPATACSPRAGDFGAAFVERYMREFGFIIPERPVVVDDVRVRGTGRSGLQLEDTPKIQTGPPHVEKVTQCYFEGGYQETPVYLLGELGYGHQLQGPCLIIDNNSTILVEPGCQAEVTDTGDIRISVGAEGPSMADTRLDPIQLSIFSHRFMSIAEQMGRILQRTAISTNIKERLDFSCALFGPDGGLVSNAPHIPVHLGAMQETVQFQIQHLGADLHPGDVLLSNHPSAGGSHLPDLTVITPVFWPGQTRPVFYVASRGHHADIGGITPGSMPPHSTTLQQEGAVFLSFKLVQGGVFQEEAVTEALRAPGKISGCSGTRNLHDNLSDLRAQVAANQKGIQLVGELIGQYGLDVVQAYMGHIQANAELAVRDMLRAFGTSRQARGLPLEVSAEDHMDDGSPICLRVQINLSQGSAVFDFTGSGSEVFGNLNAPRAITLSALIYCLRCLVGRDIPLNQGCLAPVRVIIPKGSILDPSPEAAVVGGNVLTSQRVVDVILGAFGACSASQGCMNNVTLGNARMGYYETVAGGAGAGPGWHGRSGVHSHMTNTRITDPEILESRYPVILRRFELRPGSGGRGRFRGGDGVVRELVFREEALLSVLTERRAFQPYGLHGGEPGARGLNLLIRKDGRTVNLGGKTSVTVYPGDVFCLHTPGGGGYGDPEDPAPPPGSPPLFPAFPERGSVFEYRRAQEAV
Description: (§1) In the experiments the reaction mixtures were made up to contain (final volume 0.5 ml) 100 mM Na Hepes (Na salt of N-2-hydroxyethylpiperizine-N'-2ethanesulfonic acid) buffer (pH 8.0), 150 mM KCl, 8 mM MgCl2, 2 mM phosphoenolpyruvate, 5 mM ATP (adenosine triphosphate), pyruvate kinase, in excess, 20 micrograms of 5-oxoprolinase, and the substrate as indicated.
(§2) The L- and D-isomers of 2-oxothiazolidine-4-carboxylate were synthesized by the method set out in Kaneko et al, Bull, Chem. Soc. (Japan) vol. 37, pp. 242-4 (1964) as modified by the method of Shah et al, Cancer Research vol. 39, pp. 3942-7 (1979). 5-Oxo-L-prolinase was isolated from rat kidney and freed of 5-oxoproline by gel filtration. Other chemicals and materials were obtained commercially.
(§3) After incubation for 30 min. at 37° C., the reaction mixtures were treated with 0.1 volume of 1M HCl, and placed at 0° C. for 5 min.; and an equivalent volume of 1M 2-amino-2-hydroxylmethyl-1,3,-propanediol was added. Portions were analyzed for amino acids by use of a Durrum Model 500 amino acid analyzer. Cysteine was also determined in some experiments by reaction with 5,5'-dithiobis(2-nitrobenzoate (DTNB).
At the indicated intervals portions were analyzed for ADP by the method indicated in the Table footnote, and for cysteine by reaction with DTNB.

[2] = molecular target: T1, 5-oxo-L-prolinase; assay: Inhibition of utilization of 5-oxo-L-proline (glutamate formation) by the purified enzyme; assay type: biochemical; settings: 1 mM 5-oxo-L-proline; under these conditions (1, 5, 10 mM)
Description: as §1, §2, §3
Energy for the reaction is supplied by the cleavage of ATP. […] The ratio of ADP to cysteine produced increased with time due undoubtedly to the loss of cysteine due to oxidation.

[3] = test system: hepatic glutathione; assay: Hepatic glutathione level after injection; assay type: in vivo, mice; settings: for level of hepatic glutathione relative to controls: mice fasted overnight, intraperitoneal injection (Na salt, 6.5 mmol/kilo; D-isomer equivalent doses)
Description: The effect of injecting mice with L-2-oxothiazolidine-4-carboxylate on the level of hepatic glutathione was studied. […] The maximal effect was observed about 4 hours after injection. […] These findings are indicative of in vivo formation of cysteine after administration of L-2-oxothiazolidine-4-carboxylate.
Mice fastened overnight were injected intraperitoneally with NaCl (controls; dashed line) or with Na L-2-oxothiazolidine-4-carboxylate (6.5 mmol/kilo). At intervals, the mice were sacrificed and the excised liver was homogenized in 5 volumes of 1% picric acid. After centrifugation, the protein-free supernatant solutions were analyzed for glutathione by the method of Tietze, Anal. Biochem 27, 502-22 (1969). Analyses were carried out in duplicate. In a number of instances, these values were checked by the 2-vinylpyridine procedure of Griffith, Anal. Biochem. 106; 207-12 (1980); good agreement between the two methods was observed. In the figure, the points are mean values and the bars indicate the average deviation from the mean. The numbers in parentheses give the number of animals used. The value for the controls was 4.40±0.9 umol/g.

[4] = test system: metabolism of glutamate; assay: In vivo metabolism of L-[14C]glutamate (respiratory 14CO2); settings: mice, injection of L-[14C]glutamate
Description: (§4) The in vitro results showing that L-2-oxothiazolidine-4-carboxylate inhibits utilization of 5-oxoproline were confirmed by in vivo experiments. In the latter, animals were injected with 5-oxo-L-[^14 C]proline and the respiratory [^14 CO2 ] produced was collected and measured for several hours. […] However, L-2-oxothiazolidine-4-carboxylate is a much more efficient inhibitor.
(§5) FIG. 3 depicts the inhibition of 5-oxoproline metabolism by L-2-oxothiazolidine-4-carboxylate. Mice fasted overnight were injected intraperitoneally with NaCl (Curve 1; open symbols; controls) or with Na L-2-oxothiazolidine-4-carboxylate (2.5 mmol/kilo) (Curve 2; closed symbols). After 10 min., the mice were injected subcutaneously with 5-oxo-L-[^14 C]proline (A) or with L-[^14 C]glutamate (B) (0.02 mmol; 1.1×10^6 cpm). The mice were then placed in metabolic chambers and the respiratory CO2 was collected in ethanolamine/methanol, 1:4 (vol/vol). In A, each curve represents the results on 3 animals; the points are mean values and the bars represent standard deviations from the mean. In B, each curve represents the average of closely-agreeing results obtained from 2 animals.

[5] = test system: liver glutathione; assay: Liver glutathione in animals depleted of hepatic glutathione (acetoaminophenol); assay type: in vivo; settings: mice depleted of hepatic glutathione, compound given even two hours after acetoaminophenol
Description: Administration of this compound therefore provides a way of getting cysteine into cells. One cannot give cysteine itself without complications since this amino acid is toxic extracellularly. However, when the L-oxothiazolidine compound is injected it enters the cell where it is split giving rise to cysteine within the cell. In a number of clinical situations, for example, after poisoning with excessive pain-killing drugs, e.g., those containing active ingredients known as N-acetyl-para-aminophenol, paracetamol, and acetaminophen, the liver glutathione levels decrease markedly. When cysteine is supplied to liver cells, additional glutathione can be synthesized and thus serve usefully in detoxifying the offending drug. Therefore, L-2-oxothiazolidine-4-carboxylate serves as an intracellular delivery system for cysteine and has potential as a therapeutic agent in situations in which there is depletion of liver glutathione. After acetoaminophenol is given to experimental animals such as mice, the liver glutathione declines rapidly because it is extensively utilized by reaction with the drug. […] For human treatment the L-isomer, preferably in the form of its neutral salt is administered directly into the gastro-intestinal tract or introduced intravenously.

[6] = test system: 5-oxoproline metabolism; assay: In vivo metabolism of 5-oxo-L-[14C]proline (respiratory 14CO2, urinary radioactivity); design: species or system mice
Description: as §4, §5

[7] = substrate 2 mM, 30 min at 37° C.

In the case of `O=C1N[C@@H](C(=O)O)CS1` [D-2-oxothiazolidine-4-carboxylate], the “Reaction with the enzyme in the presence of ATP (formation of ADP and cysteine)” value ([1]; 5 mM ATP, listed as D-isomer) is reported as “absence of reaction; also recorded: No reaction was observed”, the “Products Formed: Amino Acid (determined after reduction with KBH4 and reaction with iodoacetamide)” value ([1]; substrate 5 mM, footnote e: less than 20 nmol) is reported as 0 nmol and the “inhibition of glutamate formation (in words)” value [2] is reported as “did not inhibit glutamate formation”. The “level of hepatic glutathione relative to controls” value [3] was “No such stimulation was observed”.
In the case of `O=C1N[C@H](C(=O)O)CS1` [L-2-oxothiazolidine-4-carboxylate], the “apparent Km value” ([1]; compared with the natural substrate 5-oxo-L-proline) is reported as “somewhat lower than that found for the natural substrate”, the “Reaction with the enzyme in the presence of ATP (formation of ADP and cysteine)” value ([1]; 5 mM ATP) is reported as “rapid formation of ADP and cysteine” and the “Products Formed: Amino Acid (after conversion to cystine)” value [1, 7] is reported as 463 nmol. For the same compound, the “Products Formed: Amino Acid (determined after reduction with KBH4 and reaction with iodoacetamide)” value [1, 7] was 466 nmol, the “effect on the metabolism of glutamate” value [4] was “does not have a significant effect” and the “liver glutathione after depletion” value [5] was “restoration of normal hepatic glutathione levels”. For the same compound, the “liver glutathione after depletion” value ([5]; listed as L-isomer compound) was “an increase in liver glutathione occurs”, the “free cysteine in acid extracts of the livers” value ([3]; amino acid analyses after reduction by dithiothreitol and derivatization with 2-vinylpyridine) was “No free cysteine was detected” and the “level of hepatic glutathione relative to controls” value [3] was “about twice those of the controls”. The “injected dose (radioactivity) excreted in urine” value ([6]; animals treated with L-isomer and injected with 5-oxo-L-[14C]proline, none in urine of controls) was “about 16%”, the “activity on a molar basis compared with L-2-imidazolidine-4-carboxylate (inhibition of 5-oxoproline metabolism in vivo)” value ([6]; in vivo comparison) was “at least four times more active” and the “formation of [14CO2] from injected 5-oxo-L-[14C]proline” value ([6]; mice, Na salt 2.5 mmol/kilo intraperitoneally, 10 min before 5-oxo-L-[14C]proline s.c.) was “marked decrease”.
In the case of `O=C1CC[C@@H](C(=O)O)N1` [5-Oxo-L-proline, 5-oxo-L-proline], the “calculated Vmax value” ([1]; natural substrate compared with the L-isomer) is reported as “higher than that found for the L-isomer”.
In the case of `O=C1NC[C@@H](C(=O)O)N1` [L-2-imidazolidone-4-carboxylate], the “Products Formed: ADP” value ([1]; substrate 2 mM, 5 mM ATP, 20 micrograms enzyme, 30 min at 37° C., pH 8.0, pyruvate kinase-lactate dehydrogenase coupled assay) is reported as 930 nmol and the “Products Formed: Amino Acid” value ([1]; substrate 2 mM, footnote f: less than 5 nmol) is reported as 0 nmol.

— patent US4665082A, “Cysteine delivery system” (Cornell Research Foundation, priority 1985, dated 1987)
